Assay results published in US12006343B2, “C4BP-based compounds for treating immunological diseases” (FUNDACIO INSTITUT D'INVESTIGACIO BIOMEDICA DE BELLVITGE …, priority 2017, dated 2024).

What was measured:
[1] = test system: Balb/c male mice, CAIA model; assay type: in vivo, mouse; conditions: for ankle thickness: C4BP(β−) 50 μg sc d3 and d5, dexamethasone 1 mg/kg po d5-11, Enbrel 30 mg/kg sc d5-11; for body weight vs CAIA control group: mouse, in vivo
Description: Collagen-antibody induced arthritis (CAIA) is a simple mouse model of human rheumatoid arthritis (RA) induced by the systemic administration of a cocktail of monoclonal antibodies directed against conserved auto-antigenic collagen type II epitopes, followed by a single injection of lipopolysaccharide (LPS). CAIA is a useful model to study the effector inflammatory phase of arthritis without involving the priming phase of the immune response. The murine CAIA model shares several clinical, immunological and pathological features with RA. Therefore, this model is useful to study the pathogenic mechanisms involved in RA disease as well as for testing new therapies.
Balb/c male mice aged 7-8 weeks were supplied by Envigo. The animals were acclimated during 12 days. The animals were maintained in an environmentally controlled room with ventilation, temperature (22±2° C.), relative humidity (35-65%), and cycle light/dark (12 h/12 h). The animals were housed in groups of 3-5 animals/cage. The maintenance diet was supplied by Harlan Interfauna Ibérica, S. L. (“2014 Harlan Teklad Global Diets”) and they were feed diet and water ad libitum.
Plasmatic C4BP(β−) was supplied at a concentration of 6.2 mg/ml. C4BP(β−) solutions were prepared to the desired concentration 0.33 mg/ml (for 50 μg doses) by dilution with Dulbecco's phosphate-buffered saline (DPBS) of C4BP(β−) 6.2 mg/ml stock solution.
Two reference compounds were used: dexamethasone (Sigma, Ref. D1756) and Enbrel® (etanercept) (Pfizer, Ref. 655950).
Reference compound dexamethasone was dissolved in vehicle (0.1% Tween-80+99% carboxymethyl cellulose (CMC) (0.5% w/v) in water at a concentration of 0.1 mg/ml.
Enbrel® was prepared at 6 mg/ml in DPBS by dilution of 50 mg/mL stock solution.
Experimental Procedure Day 0: Arthritis Induction
On day 0, animals for experimental group C4BPd3 were randomly selected (n=8) and identified using tail code numbers and weighted.
Each mouse was sensitized by the administration of 2 mg anti-type II collagen antibodies cocktail (ArthritoMAB™ cocktail solution, 0.2 mL, i.v., day 0) in the caudal vein.
Day 3: LPS Synchronization
Animals were intraperitoneally administered with 0.1 mL of LPS solution (0.7 mg/ml, 70 μg/animal).
50 μg of C4BP(β−) were administered subcutaneously at day 3 to treatment group C4BPd3.
50 μg of C4BP(β−) were administered subcutaneously at day 5 to treatment group C4BPd3.
Day 5: Animal Distribution
On day 5 after sensitization, the rest of the animals developing clinical signs of arthritis (n=18) were evaluated and distributed in base of CAIA+incidence. Animals were homogeneously randomized (arthritis score) into the CAIA control group, dexamethasone (1 mg/kg at days 5-11, p.o.) and Enbrel®-treated groups (30 mg/kg at days 5-11, s.c.) (n=6). Animals were identified using tail code numbers and weighted.
Group 2 was not included in the distribution because of the previous test item administration.
The arthritis score was determined using the criteria of Table 9.
Treatment: • C4BPd3 group: 50 μg of C4BP(β−) were subcutaneously injected to animals on days 3 and 5. Volume: 0.150 mL. • Reference compound treatments and CAIA control groups (days 5-11): • Enbrel®: 30 mg/kg of Enbrel® was subcutaneously administered to Enbrel group from days 5 to 11. Volume: 5 mL/kg. • Dexamethasone: 1 mg/kg dexamethasone was orally administered to dexamethasone group from days 5 to 11. Volume: 10 mL/kg. • CAIA control group: 0.150 mL of DPBS was subcutaneously administered from days 5 to 11. Arthritis Monitoring:
Body weights were registered daily from days 0-12 in C4BPd3 and from days 5-12 in CAIA control, dexamethasone and Enbrel® groups. Arthritis scores were determined by the same observer in order to avoid observer bias.
The study was finished at day 12.
Animals were anesthetized with isoflurane. Ankles and wrists thickness were measured using a dial thickness gauge. Serum samples were collected and stored at −20° C. […]

[2] = test system: human monocyte-derived DCs; test: Immunomodulatory activity over human monocyte-derived DCs: CD83/CD86 surface expression by flow cytometry after LPS maturation; assay type: cell-based; conditions: Example 1
Experimental: In Vitro Functional Assessment of the Immunomodulatory Activity of Full-Length C4BP(β−) and C4BP(β−) Variants Over DCs
The inventors used for the in vitro study both C4BP(β+) (WT) and recombinant C4BP(β−) isoforms, and the above-referred mutants or variants: Mutant 1 and Mutant 2. C4BP(β+) isoforms refer to the major C4BP α7β1 plus the minor C4BP α6β1 isoforms (both in complex with ProS) purified from pooled human plasma.
RPMI 1640 was supplemented with 100 μg/ml of streptomycin, 100 IU/ml of penicillin, 2 mM L-glutamine (all from Invitrogen, Carlsbad, CA) and 10% heat-inactivated fetal bovine serum (Linus, Cultek, Spain) (complete medium), unless otherwise stated.
Peripheral blood mononuclear cells (PBMCs) were obtained from buffy coat preparations collected from healthy donors from the Blood and Tissue Bank (Barcelona, Spain) after Ficoll-Paque™ density centrifugation (GE Healthcare Bio-Sciences AB; Uppsala, Sweden). For surface phenotype determination, monocytes were plated at 1×10^6 cells/ml in 60 mm culture plates (Corning, Spain), in RPMI 1640 medium without serum, and allowed to adhere for 2 h at 37° C. in 5% CO2. The non-adherent cells were removed by washing in PBS.
Monocyte-derived DCs were generated supplementing the monocyte cultures with complete RPMI 1640 medium plus GM-CSF (800 UI/ml) and IL-4 (500 UI/ml) (both from Gentaur, Kampenhout, Belgium) at day 0 and day 3 of culture. For DC maturation, at day 5 iDCs were further stimulated for 48 h with 5 μg/ml LPS (Escherichia coli 055.B5, Sigma L2880, Copenhagen, Denmark).
Staining using the fluorescent dye 7-amino-actinomycin D (7-AAD) (BD Pharmigen) and flow cytometry analysis was employed to assess the viability status of C4BP-treated and untreated DCs.
Cell surface phenotypes were analyzed by flow cytometry using the following mAbs: FITC-conjugated anti-CD83 (HB15a) and PE-conjugated anti-CD86 (HA5.2B7) (all from Beckman-Coulter). The respective isotype controls FITC-conjugated anti-IgG2b (H2) and PE-conjugated anti-IgG2b (H2), were from the same commercial sources. After washing with PBS, cells were subsequently stained with 3 μl mAb/10^5 cells in 100 μl of FACS buffer (PBS containing 1% BSA and 0.1% sodium azide) for 20 min at room temperature. To exclude dead cells and debris, DCs were gated according to forward scatter (FSC) and side scatter (SSC) parameters. Stained cells were analyzed using a FACSCalibur (Becton Dickinson, Franklin Lakes, NJ) equipped with CellQuestPro software (Becton Dickinson).
In Vitro Functional Assessment of C4BP(β−) Immunomodulatory Activity Over DCs
The inventors used for the in vitro study both C4BP(+) and C4BP(β−) isoforms. C4BP(3+) isoforms refer to the major C4BP α7β1 plus the minor C4BP α6β1 isoforms (both in complex with ProS) purified from pooled human plasma, as previously described (Dahlbäck B. 1983. Biochem J., 209:847-56).

Compound: C[C@@H]1C[C@H]2[C@@H]3CCC4=CC(=O)C=C[C@]4(C)[C@@]3(F)[C@@H](O)C[C@]2(C)[C@@]1(O)C(=O)CO [dexamethasone]
- inhibition of arthritis score vs. CAIA controls AUC ([1]; C4BP(β−) 50 μg sc days 3 and 5, dexamethasone 1 mg/kg po days 5-11): 73%
- ankle thickness ([1]; day 12): 2.63±0.05 mm
- body weight vs CAIA control group [1]: No remarkable differences

Compound: C4BP(CCP5-CCP8)(α7β0) [Mutant 1]
- immunomodulatory activity over DCs [2]: retains the immunomodulatory activity over DCs

Compound: etanercept [Enbrel]
- inhibition of arthritis score vs. CAIA controls d12 ([1]; Enbrel 30 mg/kg sc days 5-11): 47%
- ankle thickness ([1]; day 12): 2.73±0.04 mm
- wrist thickness vs. CAIA control ([1]; day 12, regimens as Table 8): No changes
- body weight vs CAIA control group [1]: No remarkable differences
- arthritis scores / progression of arthritis ([1]; regimens as Table 8, vs CAIA control group): progressive reduction of arthritis scores over time
